Measured values reported in PubChem BioAssay (NCI).
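The compound was tested at five concentrations on cells cultured in 96-well plates, with a 48-hour exposure period. The concentration for full growth arrest is given as TGI.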

How the values were obtained:
Assay in all cases: NCI anticancer screen, dose series, 48 h
[1] = system: LOX IMVI melanoma
[2] = system: OVCAR-3 ovarian
[3] = system: CAKI-1 renal
[4] = system: PC-3 prostate
[5] = system: HOP-62 NSCLC
[6] = system: SK-MEL-2 melanoma
[7] = system: HCT-116 colon
[8] = system: SR leukemia
[9] = system: NCI-H460 lung
[10] = system: T-47D breast
[11] = system: SK-MEL-28 melanoma
[12] = system: NCI-H23 lung

Structure (SMILES)	TGI [1]	TGI [2]	TGI [3]	TGI [4]	TGI [5]	TGI [6]	TGI [7]	TGI [8]	TGI [9]	TGI [10]	TGI [11]	TGI [12]
C(=Nc1ccc(-c2nc3ccccc3s2)cc1)c1ccco1	> 100 µM	> 100 µM	> 100 µM	> 100 µM	> 100 µM	> 100 µM	> 100 µM	> 100 µM	> 100 µM	> 100 µM	> 100 µM	> 100 µM
O=C1N[C@@H]2c3c(csc3Br)C(=O)[C@@H]2O1	41.3 µM	47.8 µM	43.1 µM	> 100 µM	> 100 µM	> 100 µM	> 100 µM	74.1 µM	> 100 µM	99 µM	> 100 µM	> 100 µM
CCOP(=O)(OCC)/C(F)=C/c1ccccc1	> 100 µM	> 100 µM	> 100 µM	> 100 µM	> 100 µM	> 100 µM	> 100 µM	> 100 µM	> 100 µM	> 100 µM	> 100 µM	> 100 µM
COC(=O)CCCC(=O)C(=Nc1c(Cl)cccc1Cl)NNc1ccc(Cl)cc1	> 100 µM	> 100 µM	> 100 µM	> 100 µM	> 100 µM	> 80.3 µM	> 100 µM	> 100 µM	> 100 µM	> 100 µM	> 100 µM	> 100 µM
O=C1C(C=NCCc2c[nH]c3ccccc23)C(C(F)(F)F)=NN1c1nc2ccccc2s1 (stereo unspecified)	78.6 µM	50.1 µM	> 100 µM	97.8 µM	46.9 µM	77.7 µM	> 100 µM	93.9 µM	62.4 µM	25.5 µM	> 100 µM	> 100 µM
O=C(O)Cc1ccc2nc(COC(=O)c3ccccc3)sc2c1	> 100 µM	> 100 µM	> 100 µM	> 100 µM	> 100 µM	> 100 µM	> 100 µM	> 100 µM	> 100 µM	> 100 µM	> 100 µM	> 100 µM
COc1ccc2c(c1)C(=O)c1ccccc1C2	> 100 µM	> 100 µM	> 100 µM	> 100 µM	> 100 µM	> 100 µM	> 100 µM	> 100 µM	> 100 µM	67.8 µM	> 100 µM	> 100 µM
NCCCC(N)C(=O)O (stereo unspecified)	> 100 µM	> 100 µM	> 100 µM	> 100 µM	> 100 µM	> 100 µM	> 100 µM	> 100 µM	> 100 µM	> 100 µM	> 100 µM	> 100 µM
